Measured values as given in article PMC9182383, “Rational Design of Plant Hairpin-like Peptide EcAMP1: Structural–Functional Correlations to Reveal Antibacterial and Antifungal Activity” (Molecules, 2022).
Like-named read-outs stand apart in the source and are kept apart here. Positions of bridges follow the written chain, without caps; N, C: chain ends. Residues, ends and D or L forms follow the SMILES beside them.

Columns and labels:
[1] = system: E. coli; assay: Antibacterial microdilution assay; type: cell-based, Escherichia coli; settings: CA-MHB, 37 °C 48 h; for Antibacterial activity against E. coli: concentrations up to 80 µM
[2] = system: P. aeruginosa; assay: Antibacterial microdilution assay; type: cell-based; settings: CA-MHB, 37 °C 48 h; for Antibacterial activity against P. aeruginosa: concentrations up to 80 µM
[3] = system: F. graminearum
[4] = system: Aspergillus niger; settings: 48 h
[5] = system: Bipolaris sorokiniana; settings: 48 h
[6] = system: Alternaria alternata; settings: 48 h
[7] = system: C. albicans; settings: 48 h
[8] = system: S. aureus
[9] = system: filamentous fungi and oomycetes; settings: cited from earlier work
[10] = system: Fusarium oxysporum; settings: 48 h
[11] = system: F. solani; settings: 48 h
[12] = read-out: Antifungal activity IC50, F. graminearum, Table 1, native vs truncated forms, potato–dextrose broth, 10^4–10^5 conidia per mL, 25 °C 48 h, 50% inhibition of spore germination, light microscopy, three replicates
[13] = Table S1, microdilution, YPDB, OD600, growth control +, negative control -

## CSCC[C@@H]1NC(=O)[C@@H]2CSSC[C@H](NC(=O)[C@H](CCC(=O)O)NC(=O)[C@H](CCC(N)=O)NC(=O)[C@H](C(C)C)NC(=O)[C@H](CCCNC(=N)N)NC(=O)[C@H](Cc3c[nH]c4ccccc34)NC(=O)[C@@H]3CCCN3C(=O)[C@H](CCC(=O)O)NC(=O)[C@H](CC(=O)O)NC(=O)[C@H](CCC(=O)O)NC(=O)[C@H](Cc3c[nH]cn3)NC(=O)[C@H](CCCNC(=N)N)NC(=O)[C@H](CCCNC(=N)N)NC1=O)C(=O)N[C@@H](C(C)C)C(=O)N[C@@H](CO)C(=O)N[C@@H](CCC(N)=O)C(=O)N[C@H](C(=O)N[C@@H](CCCNC(=N)N)C(=O)N[C@@H](CCCNC(=N)N)C(=O)N[C@@H](CCCNC(=N)N)C(=O)N[C@@H](CCCNC(=N)N)C(=O)NCC(=O)NCC(=O)NCC(=O)N[C@@H](CC(=O)O)C(=O)O)CSSC[C@H](NC(=O)[C@H](CO)NC(=O)CNC(=O)[C@H](CCCNC(=N)N)NC(=O)CNC(=O)[C@H](CO)NC(=O)CN)C(=O)N[C@@H](CCCNC(=N)N)C(=O)N[C@@H](CO)C(=O)N[C@@H](CCC(N)=O)C(=O)N2 [EcAMP1-WT] (H-GSGRGSCRSQCMRRHEDEPWRVQECVSQCRRRRGGGD-OH; disulfide 7-29, 11-25; N-terminus and C-terminus assumed)
[1]
  Antibacterial activity against E. coli: inactive
[2]
  Antibacterial activity against P. aeruginosa: inactive
[3]; [12]
  IC50: 6.8 ± 1 µM
[4]
  IC50: > 32 µM
[5]
  IC50: 25.7 ± 3.6 µM
[6]
  IC50: 18.4 ± 2.7 µM
[7]
  IC50: 0.625 µM
[7]; Table S1, 0.625 µM, microdilution, YPDB, OD600, growth control +, negative control -
  Growth of C. albicans at 0.625 µM peptide: MIC50
[7]; [13]
  Growth of C. albicans at 1.25 µM peptide: MIC99
[7]; microdilution, YPDB, range 0.625–80 µM, OD600
  MIC99, almost complete suppression of C. albicans: 1.25 µM
[8]; 48 h
  IC50: 5 µM
[8]; Table S2, 5 µM, microdilution, CA-MHB, 37 °C 48 h, OD600, growth control +, negative control -
  Growth of S. aureus at 5 µM peptide: MIC50
[8]; Table S2, 10 µM, microdilution, CA-MHB, 37 °C 48 h, OD600, growth control +, negative control -
  Growth of S. aureus at 10 µM peptide: MIC95
[8]; Table S2, 20 µM, microdilution, CA-MHB, 37 °C 48 h, OD600, growth control +, negative control -
  Growth of S. aureus at 20 µM peptide: MIC99
[9]
  Number of microbes for which inhibition activity was registered: 11
[9]; read-out: IC50 against filamentous fungi and oomycetes
  IC50: 4.5 to 18.2 µM

## CSCC[C@@H]1NC(=O)[C@@H]2CSSC[C@H](NC(=O)[C@H](CCC(=O)O)NC(=O)[C@H](CCC(N)=O)NC(=O)[C@H](C(C)C)NC(=O)[C@H](CCCNC(=N)N)NC(=O)[C@H](Cc3c[nH]c4ccccc34)NC(=O)[C@@H]3CCCN3C(=O)[C@H](CCC(=O)O)NC(=O)[C@H](CC(=O)O)NC(=O)[C@H](CCC(=O)O)NC(=O)[C@H](Cc3c[nH]cn3)NC(=O)[C@H](CCCNC(=N)N)NC(=O)[C@H](CCCNC(=N)N)NC1=O)C(=O)N[C@@H](C(C)C)C(=O)N[C@@H](CO)C(=O)N[C@@H](CCC(N)=O)C(=O)N[C@H](C(=O)O)CSSC[C@H](N)C(=O)N[C@@H](CCCNC(=N)N)C(=O)N[C@@H](CO)C(=O)N[C@@H](CCC(N)=O)C(=O)N2 [EcAMP1-X1] (H-CRSQCMRRHEDEPWRVQECVSQC-OH; disulfide 1-23, 5-19 (inferred); N-terminus assumed)
[1]
  Antibacterial activity against E. coli: absolutely inactive
[2]
  Antibacterial activity against P. aeruginosa: absolutely inactive
[10]
  IC50: 15.4 ± 1.1 µM
[3]; [12]
  IC50: 9 ± 1.4 µM
[11]
  IC50: 6.9 ± 0.7 µM
[4]
  IC50: > 32 µM
[5]
  IC50: > 32 µM
[6]
  IC50: 21.1 ± 2.4 µM
[7]; microdilution, YPDB, concentrations up to 80 µM
  Activity against C. albicans: absolutely inactive
[8]; microdilution, CA-MHB, 37 °C 48 h, concentrations up to 80 µM
  Antibacterial activity against S. aureus: absolutely inactive

## CSCC[C@@H]1NC(=O)[C@@H](N)CSSC[C@@H](C(=O)O)NC(=O)[C@H](CCC(=O)O)NC(=O)[C@H](CCC(N)=O)NC(=O)[C@H](C(C)C)NC(=O)[C@H](CCCNC(=N)N)NC(=O)[C@H](Cc2c[nH]c3ccccc23)NC(=O)[C@@H]2CCCN2C(=O)[C@H](CCC(=O)O)NC(=O)[C@H](CC(=O)O)NC(=O)[C@H](CCC(=O)O)NC(=O)[C@H](Cc2c[nH]cn2)NC(=O)[C@H](CCCNC(=N)N)NC(=O)[C@H](CCCNC(=N)N)NC1=O [EcAMP1-X2] (H-CMRRHEDEPWRVQEC-OH; disulfide 1-15)
[10]
  IC50: 23.2 ± 2.6 µM
[3]; [12]
  IC50: 18.1 ± 2.1 µM
[11]
  IC50: 11 ± 1.9 µM
[4]
  IC50: > 32 µM
[5]
  IC50: > 32 µM
[6]
  IC50: > 32 µM

## CSCC[C@@H]1NC(=O)[C@@H]2CSSC[C@H](NC(=O)[C@H](CCC(=O)O)NC(=O)[C@H](CCC(N)=O)NC(=O)[C@H](C(C)C)NC(=O)[C@H](CCCNC(=N)N)NC(=O)[C@H](C)NC(=O)[C@@H]3CCCN3C(=O)[C@H](CCC(=O)O)NC(=O)[C@H](CC(=O)O)NC(=O)[C@H](CCC(=O)O)NC(=O)[C@H](Cc3c[nH]cn3)NC(=O)[C@H](CCCNC(=N)N)NC(=O)[C@H](CCCNC(=N)N)NC1=O)C(=O)N[C@@H](C(C)C)C(=O)N[C@@H](CO)C(=O)N[C@@H](CCC(N)=O)C(=O)N[C@H](C(=O)N[C@@H](CCCNC(=N)N)C(=O)N[C@@H](CCCNC(=N)N)C(=O)N[C@@H](CCCNC(=N)N)C(=O)N[C@@H](CCCNC(=N)N)C(=O)NCC(=O)NCC(=O)NCC(=O)N[C@@H](CC(=O)O)C(=O)O)CSSC[C@H](NC(=O)[C@H](CO)NC(=O)CNC(=O)[C@H](CCCNC(=N)N)NC(=O)CNC(=O)[C@H](CO)NC(=O)CN)C(=O)N[C@@H](CCCNC(=N)N)C(=O)N[C@@H](CO)C(=O)N[C@@H](CCC(N)=O)C(=O)N2 [EcAMP1-X3] (H-GSGRGSCRSQCMRRHEDEPARVQECVSQCRRRRGGGD-OH; disulfide 7-29, 11-25; N-terminus and C-terminus assumed)
[10]
  IC50: 15 ± 2.1 µM
[3]; 48 h
  IC50: 9.9 ± 1.9 µM
[11]
  IC50: 8.6 ± 1.5 µM

## CSCC[C@@H]1NC(=O)[C@@H]2CSSC[C@H](NC(=O)[C@H](CCC(=O)O)NC(=O)[C@H](CCC(N)=O)NC(=O)[C@H](C(C)C)NC(=O)[C@H](CCCNC(=N)N)NC(=O)[C@H](Cc3c[nH]c4ccccc34)NC(=O)[C@@H]3CCCN3C(=O)[C@H](CCC(=O)O)NC(=O)[C@H](CC(=O)O)NC(=O)[C@H](CCC(=O)O)NC(=O)[C@H](Cc3c[nH]cn3)NC(=O)[C@H](CCCNC(=N)N)NC(=O)[C@H](CCCNC(=N)N)NC1=O)C(=O)N[C@@H](C(C)C)C(=O)N[C@@H](CO)C(=O)N[C@@H](CCC(N)=O)C(=O)N[C@H](C(=O)N[C@@H](CCCNC(=N)N)C(=O)N[C@@H](CCCNC(=N)N)C(=O)O)CSSC[C@H](NC(=O)[C@H](CO)NC(=O)CNC(=O)[C@H](CCCNC(=N)N)NC(=O)CNC(=O)[C@H](CO)NC(=O)CN)C(=O)N[C@@H](CCCNC(=N)N)C(=O)N[C@@H](CO)C(=O)N[C@@H](CCC(N)=O)C(=O)N2 [EcAMP1-X4] (H-GSGRGSCRSQCMRRHEDEPWRVQECVSQCRR-OH; disulfide 7-29, 11-25; N-terminus and C-terminus assumed)
[10]
  IC50: 15.8 ± 1.6 µM
[3]; 48 h
  IC50: 8.5 ± 1.2 µM
[11]
  IC50: 7.8 ± 0.7 µM

## LL37: linear α-helical antimicrobial peptide cathelicidin, positive control (LLGDFFRKSKEKIGKEFKRIVQRIKDFLRNLVPRTES; Antibacterial peptide LL-37; UniProt P49913 134-170, looked up) [reference compound]
[1]; Table S3, 1.25 µM, OD600, growth control +, negative control -
  Growth of E. coli at 1.25 µM peptide: MIC99
[2]; Table S4, 1.25 µM, OD600, growth control +, negative control -
  Growth of P. aeruginosa at 1.25 µM peptide: MIC99
[7]; [13]
  Growth of C. albicans at 1.25 µM peptide: MIC99
[8]; Table S2, 0.625 µM, microdilution, CA-MHB, 37 °C 48 h, OD600, growth control +, negative control -
  Growth of S. aureus at 0.625 µM peptide: MIC50
[8]; Table S2, 1.25 µM, microdilution, CA-MHB, 37 °C 48 h, OD600, growth control +, negative control -
  Growth of S. aureus at 1.25 µM peptide: MIC99
